# In patent US10253002B2, “Compounds and methods of treating infections” (Neoculi Pty Ltd., priority 2013, dated 2019):
# Assays:
# [1] = test system: protein synthesis in S. aureus ATCC 29213; assay: Macromolecular synthesis assay: protein synthesis ([3H] leucine); format: cell-based, Staphylococcus aureus; conditions: 8 fold the MIC (2 μg/mL)
# Procedure: Cells were grown at 35° C. overnight on Trypticase Soy agar. A colony from the plate was used to inoculate 10 ml of Mueller Hinton broth II (MHBII), and the culture was grown to early exponential growth phase (OD600==0.2 to 0.3) while incubating in a shaker at 35° C. and 200 rpm.
# When cells reached early exponential phase, 100 μL of culture was added to triplicate wells containing various concentrations of test compound or control antibiotics (5 μL) at 20× the final concentration in 100% DMSO. A 5% DMSO treated culture served as the “no drug” control for all experiments. Cells were added in MHBII at 105% to account for the volume of drug added to each reaction or in M9 minimal medium for protein synthesis reactions. Following 15 min incubation at room temperature, either [^3H] thymidine (DNA synthesis), [^3H] uridine (RNA synthesis) or [^3H] leucine (protein synthesis) was added at 0.5-1.0 μCi per reaction, depending on the experiment. Reactions were allowed to proceed at room temperature for 15-30 min and then stopped by adding 12 μL of cold 5% trichloroacetic acid (TCA) or 5% TCA/2% casamino acids (protein synthesis only). […] After washing three times with 5 ml of cold 5% TCA, the filters were rinsed two times with 5 mL 100% ethanol, allowed to dry, and then counted using a Beckman LS3801 liquid scintillation counter.
# S. aureus ATCC 29213 [2] = assay: MIC testing (CLSI M07-A8, MHB II), Example 2; format: cell-based; conditions: ATCC29213, Staphylococcus aureus ATCC 29213
# Source text: The medium employed for the MIC assay was Mueller Hinton II Broth (MHB II-Becton Dickinson, Sparks, Md.; Cat No 212322; Lot 9044411). S. aureus ATCC 29213 served as the quality control strain, and linezolid was utilized as the quality control antibiotic to validate the assay.
# S. aureus ATCC 29213 [3] = conditions: Staphylococcus aureus ATCC 29213; CLSI-established; cited from earlier work
# VRE = assay: Broth microdilution MIC, Example 7 (NCL812 and analogues); format: cell-based, Enterococcus spp.
# Method in brief: (§1)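 Values are MICs in μg/ml from broth microdilution per CLSI, with growth scored against a drug-free well.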
# Escherichia coli = assay: as above; format: cell-based; conditions: E. coli; 24 hours; duplicate lines per compound
# Staphylococcus aureus = assay: Mouse skin wound infection model, topical treatment; format: in vivo, mice; conditions: 14 treatments
# Source text: Preliminary studies prior to the conduct of the current study established a new method of skin infection arising from a detailed study of the models mentioned above. Briefly, study mice are anaesthetised, a patch of dorsal skin is clipped to reveal the skin and a circular area of skin is removed with a hand held punch, leaving a wound on the dorsum with a central cavity. The wound is infected with a known number of the challenge organism. Approximately four to six hours after infection, the wound is either treated topically with a vehicle formulation or an active formulation. The infected skin wound is retreated every 12 hours for a total of 14 treatments. Mice are humanely euthanased, the area of the original infected wound is dissected and removed and its bacterial content quantified by standard microbiologic tests. In this way, the change in bacterial concentration due to treatment with the active formulation can be readily determined by examining the reduction in bacterial burden compared with the vehicle control. Fresh cultures of bacteria (Staphylococcus aureus) were grown on Sheep Blood Agar at 37° C. for 16-18 hours. A few typical colonies were selected and suspended in 10 ml of Tryptic Soy Broth and incubated overnight in a shaking incubator (240 rpm) at 37° C. The overnight suspension was vortexed and diluted (1:100) in fresh Tryptic soy broth (100 μl [0.1 ml] in 9.9 ml broth). The fresh suspension was incubated for 3 hours in a shaking incubator (as above) in order to obtain mid-logarithmic phase bacteria. Bacteria were pelleted through centrifugation at 7,500 rpm for 10 mins. Broth supernatant was removed and bacteria suspended in 10 ml Phosphate Buffered Saline (PBS). These steps were repeated a further two times. The density of the suspension was checked by measuring absorbance at 600 nm, using a spectrophotometer with saline as a blank, to confirm the target density at a reading of approximately 0.100, consistent with a bacterial density of 2.5×10^7 CFU/ml. The suspension was placed into a rack placed into a lockable transport box with an ice brick to maintain refrigeration during transport, followed by storage in cool room upon arrival at the mouse skin infection laboratory. Final suspension was mixed thoroughly before inoculating the skin wounds created in mice. […] Eyes of each anaesthetised mouse were covered with veterinary eye lubricant in order to prevent corneal dehydration. Each mouse removed from induction chamber and placed onto surgical area, in front of individual aesthetic nose cone. While under anaesthesia each mouse was monitored for assessment of depth of anaesthesia (response to pain, blink reflex, skeletal muscle tone) and respiratory and cardiac function. Back skin hair was shaved from surgical area with mechanical clippers. […] Once the iodine solution was dry, a subcutaneous injection of the nonsteroidal anti-inflammatory agent meloxicam was administered. Dorsal skin was pinched gently to allow creation of a circular full-thickness wound using ear punch/biopsy punch. […] Once the bacterial suspension was dry, mice were placed into individual recovery boxes labelled with the mouse number. The time of inoculation was recorded. Initial body weights of each mouse were recorded on the appropriate score sheet. Mice recovered to full consciousness within 5 minutes. Recovered mice were returned to individual housing and monitored hourly for post-surgical or anaesthetic complications. […] Each ointment container was weighted prior to administration and the weight recorded. Each mouse was carefully restrained. […] The weight of the ointment container post-administration was recorded. […] At the end of the 7 day skin wound assessment period, all test mice were euthanased prior to wound collection for post mortem examination. The skin wound was dissected from the dorsum of each mouse. The sample was placed in a sample tube and weighed before 1 ml PBS and sterile tissue homogenisation beads were added. […]
# MRSA [4] = assay: Broth microdilution MIC, Example 7 (NCL812 and analogues); format: cell-based, Staphylococcus aureus
# Method in brief: as §1
# [5] = Release from Formulation B, Franz diffusion cells; format: physicochemical; conditions: absolute ethanol receptor, 32±1° C., up to 24 hours
# Procedure: Franz diffusion cells were utilized to quantify the release rate of NCL 812 and NCL099 from its topical formulations. Five milliliters of absolute ethanol, which was chosen as the desired release medium, was loaded into the receptor chamber. Temperature of the receptor fluid was kept constant, at 32±1° C. using a water jacket. Acetyl cellulose membranes, with pore size of 0.45 μm (Pall Corporation) was selected and placed between donor and receptor chamber. Followed by that, a number of test samples (Formulation B) was loaded into the donor chamber. One milliliter of receptor fluid was collected at regular time intervals of 0.25, 0.50, 0.75, 1, 2, 3, 4, 5, 6, 7, 8 and 24 hours through the sampling port. One milliliter of fresh absolute ethanol was immediately returned to the receptor chamber. UV-HPLC was utilized to analyse the content of the receptor fluids attained.
# [6] = Bioassay ranking of the analogues tested; conditions: M + R (MRSA and VRE combined)
# Pseudomonas aeruginosa = assay: Broth microdilution MIC, Example 7 (NCL812 and analogues); format: cell-based; conditions: P. aeruginosa; 24 hours; duplicate lines per compound
# MRSA [7] = conditions: within an hour of exposure to a concentration equivalent to the Cmax; McKay et al. (2009); cited from earlier work
compound,measurement,setting,value
CC(=O)NC[C@H]1CN(c2ccc(N3CCOCC3)c(F)c2)C(=O)O1 [Linezolid],inhibition of protein synthesis,[1],approximately 61%
same,MIC,S. aureus ATCC 29213 [2],4 mg/L
same,Quality control range for linezolid (MIC),S. aureus ATCC 29213 [3],1 to 4 mg/L
CC(C)(C)c1ccc(C=NNC(=N)NN=Cc2ccc(C(C)(C)C)cc2)cc1.Cl [NCL099],activity against VRE among analogues,"VRE; MIC testing, two VRE strains",greatest activity
same,"MIC (μg/ml) at 24 hours, VRE 1","VRE; VRE 1, 24 hours, duplicate lines per compound",8 µg/mL
same,"MIC (μg/ml) at 24 hours, VRE 2","VRE; VRE 2, 24 hours, duplicate lines per compound",8 µg/mL
same,VRE,"VRE; bioassay ranking, VRE",8 µg/mL
same,"MIC (μg/ml) at 24 hours, E. coli",Escherichia coli,>128 µg/mL
same,"mean colony count per g of tissue, log10","Staphylococcus aureus; mice, Formulation B 20 mg/g topically every 12 hours, vehicle 6.77",3.12 log10
same,mean colony count per g of tissue,"Staphylococcus aureus; mice, Formulation B 20 mg/g topically every 12 hours, vehicle 5,888,436","1,318"
same,% reduction (of colony forming units per gram of tissue versus vehicle),"Staphylococcus aureus; mouse skin wound infected with Staphylococcus aureus, topical ointment (Formulation B, 20 mg/g) every 12 hours, end of 7 day period, relative to vehicle group",99.98%
same,Log10 (CFU/g): colony forming units per gram of tissue,"Staphylococcus aureus; mouse skin wound infected with Staphylococcus aureus, topical ointment (Formulation B, 20 mg/g) every 12 hours, wound tissue at end of 7 day period, group mean",3.12 Log10 (CFU/g)
same,activity against MRSA among analogues,"MRSA [4]; MIC testing, two MRSA strains",greatest activity
same,"MIC (μg/ml) at 24 hours, MRSA 1","MRSA [4]; MRSA 1, 24 hours, duplicate lines per compound",8 µg/mL
same,"MIC (μg/ml) at 24 hours, MRSA 2","MRSA [4]; MRSA 2, 24 hours, duplicate lines per compound",4 µg/mL
same,MRSA,"MRSA [4]; bioassay ranking, MRSA",6 µg/mL
same,release profile from Formulation B,[5],acceptable release profile
same,M + R,[6],7 µg/mL
same,"MIC (μg/ml) at 24 hours, P. aeruginosa",Pseudomonas aeruginosa,>128 µg/mL
CN[C@H](CC(C)C)C(=O)N[C@H]1C(=O)N[C@@H](CC(N)=O)C(=O)N[C@H]2C(=O)N[C@H]3C(=O)N[C@H](C(=O)N[C@H](C(=O)O)c4cc(O)cc(O)c4-c4cc3ccc4O)[C@H](O[C@H]3C[C@](C)(N)[C@@H](O)[C@H](C)O3)c3ccc(c(Cl)c3)Oc3cc2cc(c3O[C@@H]2O[C@H](CO)[C@@H](O)[C@H](O)[C@H]2O[C@H]2C[C@](C)(NCc3ccc(-c4ccc(Cl)cc4)cc3)[C@@H](O)[C@H](C)O2)Oc2ccc(cc2Cl)[C@H]1O [oritavancin],reduction in viable count,MRSA [7],3 log10
